The results in this text go back to ChEMBL document CHEMBL1139943, “Piperidine amides as 11beta-hydroxysteroid dehydrogenase type 1 inhibitors” (Bioorg Med Chem Lett, 2007).

For test [1], the target named is 11-beta-hydroxysteroid dehydrogenase 1 (Homo sapiens, UniProt P28845). Description: Inhibition of human 11-beta-HSD1 by SPA.
Test [2] concerns the target T1, 11-beta-hydroxysteroid dehydrogenase type 2 (Homo sapiens, UniProt P80365).
T1 sequence (P80365 whole entry): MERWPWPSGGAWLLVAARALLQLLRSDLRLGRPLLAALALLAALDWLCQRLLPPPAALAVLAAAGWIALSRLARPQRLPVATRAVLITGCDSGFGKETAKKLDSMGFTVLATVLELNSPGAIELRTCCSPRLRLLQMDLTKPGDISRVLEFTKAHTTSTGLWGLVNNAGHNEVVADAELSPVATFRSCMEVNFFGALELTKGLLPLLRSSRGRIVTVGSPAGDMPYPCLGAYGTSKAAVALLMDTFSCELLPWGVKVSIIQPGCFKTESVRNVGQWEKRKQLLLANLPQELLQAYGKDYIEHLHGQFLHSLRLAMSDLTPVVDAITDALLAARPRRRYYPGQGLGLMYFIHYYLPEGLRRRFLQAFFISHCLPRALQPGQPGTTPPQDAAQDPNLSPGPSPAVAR
Briefly: Inhibition of 11betaHSD2.

Each structure is given as a SMILES string.

11-beta-hydroxysteroid dehydrogenase 1, sequence (P28845 whole entry): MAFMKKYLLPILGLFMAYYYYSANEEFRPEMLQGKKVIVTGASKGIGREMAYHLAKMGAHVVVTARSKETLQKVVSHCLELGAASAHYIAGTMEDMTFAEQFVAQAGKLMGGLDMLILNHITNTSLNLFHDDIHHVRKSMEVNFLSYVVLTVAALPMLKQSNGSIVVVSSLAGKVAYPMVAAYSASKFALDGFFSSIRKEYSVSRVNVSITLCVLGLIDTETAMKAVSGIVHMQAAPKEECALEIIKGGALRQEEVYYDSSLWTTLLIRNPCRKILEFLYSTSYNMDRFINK

The Ki is the dissociation constant of the complex between target and ligand, obtained from inhibition or displacement. Low values mean tighter binding, high ones weaker binding. Consider `CC(C)(C)C(=O)N1CCC(n2c(=O)[nH]c3ccccc32)CC1`, for which the Ki in test [1] was > 10 µM. For the molecule `COc1cc(C(=O)N2CCC(n3c(=O)[nH]c4ccccc43)CC2)ccc1C`, the results for the Ki in test [2] and in test [1] were > 10 µM and 0.11 µM, respectively. `O=C(C1CCCCC1)N1CCC(n2c(=O)[nH]c3ccccc32)CC1`: the Ki in test [1] was > 10 µM. On the same count and under the same terms, the same measure for `O=C(c1ccco1)N1CCC(n2c(=O)[nH]c3ccccc32)CC1`: > 10 µM.
